Structures can show the parent of a compound that is named as a salt. Where two headings read alike, the source gives them in different places.
Legend:
T47D cells = assay: Cell-based assay: anti-proliferative activity, Cell Counting Kit-8, 72 hours (T47D); details: Homo sapiens, T47D, 72 h
How it was run: (§1)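 First, lysates underwent western blotting with anti-MELK antibody to establish expression. Next, cells went into 96-well plates. Then candidate inhibitors were added. Finally, viability was determined by CCK-8 at 72 h and IC50 computed.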

DU4475 cells = assay: Cell-based assay: anti-proliferative activity, Cell Counting Kit-8, 72 hours (DU4475); details: Homo sapiens, DU-4475, 72 h
A549 cells = assay: Cell-based assay: anti-proliferative activity, Cell Counting Kit-8, 72 hours (A549); details: Homo sapiens, A549, 72 h, 72 hours
How it was run: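 A549 cells were seeded in 96-well plates and exposed to candidate inhibitors for 72 hours. Cell growth was then measured with Cell Counting Kit-8, and IC50 values were calculated from the resulting growth data.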

MELK = MELK (Homo sapiens, UniProt Q14680); assay: Kinase assay: MELK activity, phosphorylation of FITC-labeled histone H3 peptide measured by IMAP fluorescence polarization; format: biochemical; details: read-out: IC50 (μM) (kinase assay)
Sequence of MELK (Q14680 whole entry, looked up): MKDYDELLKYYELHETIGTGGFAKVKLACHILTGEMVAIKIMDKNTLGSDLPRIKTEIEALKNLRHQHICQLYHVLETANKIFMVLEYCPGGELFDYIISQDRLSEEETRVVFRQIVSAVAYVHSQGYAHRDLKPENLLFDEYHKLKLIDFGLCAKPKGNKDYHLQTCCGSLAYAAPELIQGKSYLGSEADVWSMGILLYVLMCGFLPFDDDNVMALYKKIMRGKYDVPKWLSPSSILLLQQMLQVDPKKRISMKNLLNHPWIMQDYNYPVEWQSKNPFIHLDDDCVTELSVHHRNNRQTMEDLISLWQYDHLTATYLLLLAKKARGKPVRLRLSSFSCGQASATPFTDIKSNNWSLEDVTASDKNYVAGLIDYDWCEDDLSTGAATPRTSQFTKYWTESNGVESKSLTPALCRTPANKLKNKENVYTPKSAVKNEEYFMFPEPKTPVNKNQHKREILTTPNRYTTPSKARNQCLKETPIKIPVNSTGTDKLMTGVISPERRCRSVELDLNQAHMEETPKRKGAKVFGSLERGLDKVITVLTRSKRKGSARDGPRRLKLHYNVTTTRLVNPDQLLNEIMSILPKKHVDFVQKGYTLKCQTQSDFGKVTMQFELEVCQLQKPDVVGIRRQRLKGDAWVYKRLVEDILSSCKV
How it was run: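 Kinase reactions ran with or without test compound (final DMSO 1%) on a fluorescein-tagged H3 peptide. Progressive binding solution was added to terminate them. After a half-hour room-temperature incubation, polarization was measured.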

22Rv1 cells = assay: Cell-based assay: anti-proliferative activity, Cell Counting Kit-8, 72 hours (22Rv1); details: Homo sapiens, 22Rv1, 72 h
HT-1197 cells = assay: Cell-based assay: anti-proliferative activity, Cell Counting Kit-8, 72 hours (HT-1197, negative control without MELK expression); details: Homo sapiens, HT1197, 72 h, HT1197 cells (negative control, no MELK expression), 72 hours
How it was run: as §1

For `CC(=O)c1cnc2ccc(-c3cc(Cl)c(O)c(Cl)c3)cc2c1N[C@H]1CC[C@H](CN2CCC[C@H]2CO)CC1` [Example 792, 1-(6-(3,5-dichloro-4-hydroxyphenyl)-4-((1S,4r)-4-(((S)-2-(hydroxymethyl)pyrrolidin-1-yl)methyl)cyclohexylamino)quinolin-3-yl)ethanone], the IC50 (T47D cells) was 0.079 µM, the IC50 (DU4475 cells) was 0.073 µM and the IC50 (A549 cells) was 0.1 µM. For the same molecule, the IC50 (MELK) was 0.0011 µM and the IC50 (22Rv1 cells) was 0.12 µM.
For `CCC(=O)c1cnc2ccc(-c3cc(F)c(O)c(Cl)c3)cc2c1Nc1ccc(N2CCC(N)C2)nc1` (stereo not drawn) [Example 760, 1-(4-(6-(3-aminopyrrolidin-1-yl)pyridin-3-ylamino)-6-(3-chloro-5-fluoro-4-hydroxyphenyl)quinolin-3-yl)propan-1-one], the IC50 (T47D cells) was 0.0087 µM, the IC50 (DU4475 cells) was 0.016 µM and the IC50 (A549 cells) was 0.031 µM. It also gave an IC50 (MELK) of 0.0034 µM and an IC50 (HT-1197 cells) of 0.77 µM.
For `CC(=O)c1cnc2ccc(-c3cc(F)c(O)c(Cl)c3)cc2c1Nc1cccc(CCN2CCCC2)c1` [Example 803, 1-(6-(3-chloro-5-fluoro-4-hydroxyphenyl)-4-(3-(2-(pyrrolidin-1-yl)ethyl)phenylamino)quinolin-3-yl)ethanone], the IC50 (T47D cells) was 0.65 µM, the IC50 (DU4475 cells) was 0.12 µM and the IC50 (A549 cells) was 0.17 µM. It also gave an IC50 (MELK) of 0.016 µM and an IC50 (22Rv1 cells) of 0.44 µM.
Molecule `CC(=O)c1cnc2ccc(-c3cc(Cl)c(O)c(Cl)c3)cc2c1Nc1cnn(C2CCN(C)CC2)c1` [Example 836, 1-(6-(3,5-dichloro-4-hydroxyphenyl)-4-((1-(1-methylpiperidin-4-yl)-1H-pyrazol-4-yl)amino)quinolin-3-yl)ethanone dihydrochloride] has an IC50 (T47D cells) of 0.35 µM, an IC50 (DU4475 cells) of 0.082 µM and an IC50 (A549 cells) of 0.45 µM. The IC50 (MELK; MELK kinase assay, IMAP fluorescence polarization, 50 micro-M ATP) was 0.0014 µM and the IC50 (22Rv1 cells) was 0.27 µM.
With `CC(=O)c1cnc2ccc(-c3cc(Cl)c(O)c(Cl)c3)cc2c1Nc1cccc(CCN2CCCC2)c1` [Example 801, 1-{6-(3,5-Dichloro-4-hydroxyphenyl)-4-[3-(2-(pyrrolidin-1-yl)ethyl)phenylamino]quinolin-3-yl}ethanone] the IC50 (T47D cells) was 0.37 µM, the IC50 (DU4475 cells) was 0.06 µM and the IC50 (A549 cells) was 0.081 µM. The IC50 (MELK) was 0.004 µM and the IC50 (22Rv1 cells) was 0.15 µM.
For `COc1cc(-c2ccc3ncc(C(C)=O)c(N[C@H]4CC[C@H](CN5CCC(O)C5)CC4)c3c2)cc(Cl)c1O` (stereo partly drawn) [Example 749], the IC50 (T47D cells) was 0.12 µM, the IC50 (DU4475 cells) was 0.21 µM and the IC50 (A549 cells) was 0.22 µM. It also gave an IC50 (MELK) of 0.0017 µM and an IC50 (HT-1197 cells) of 6.4 µM.
`CCC(=O)c1cnc2ccc(-c3cc(Cl)c(O)c(Cl)c3)cc2c1N[C@H]1CC[C@H](N(C)C)CC1` [Example 754, 1-(6-(3,5-dichloro-4-hydroxyphenyl)-4-((trans-4-(dimethylamino)cyclohexyl)amino)quinolin-3-yl)propan-1-one] was tested, and the IC50 (T47D cells) was 0.19 µM, the IC50 (DU4475 cells) was 0.072 µM and the IC50 (A549 cells) was 0.22 µM. It also gave an IC50 (MELK) of 0.02 µM and an IC50 (HT-1197 cells) of 10 µM.
Work on `COc1cc(-c2ccc3ncc(C(=O)C4CC4)c(Nc4ccc(NCCN(C)C)nc4)c3c2)cc(Cl)c1O` [Example 746, (6-(3-chloro-4-hydroxy-5-methoxyphenyl)-4-(6-(2-(dimethylamino)ethylamino)pyridin-3-ylamino)quinolin-3-yl)(cyclopropyl)methanone] yielded an IC50 (T47D cells) of 0.23 µM, an IC50 (DU4475 cells) of 0.11 µM and an IC50 (A549 cells) of 0.18 µM. For the same molecule, the IC50 (MELK) was 0.0029 µM and the IC50 (HT-1197 cells) was 6.2 µM.
`O=C(c1cnc2ccc(-c3cc(Cl)c(O)c(Cl)c3)cc2c1Nc1cccc(CCN2CCCC2)c1)C1CC1` [Example 797, Cyclopropyl{6-(3,5-dichloro-4-hydroxyphenyl)-4-[3-(2-(pyrrolidin-1-yl)ethyl)phenylamino]quinolin-3-yl}methanone] showed an IC50 (T47D cells) of 0.31 µM, an IC50 (DU4475 cells) of 0.03 µM and an IC50 (A549 cells) of 0.022 µM. The IC50 (MELK) was 0.0056 µM and the IC50 (22Rv1 cells) was 0.12 µM.
`O=C(c1cnc2ccc(-c3cc(Cl)c(O)c(Cl)c3)cc2c1N1CCC(CCN2CCCC2)CC1)C1CC1` [Example 756, cyclopropyl(6-(3,5-dichloro-4-hydroxyphenyl)-4-(4-(2-(pyrrolidin-1-yl)ethyl)piperidin-1-yl)quinolin-3-yl)methanone] gave an IC50 (T47D cells) of 0.5 µM, an IC50 (DU4475 cells) of 0.27 µM and an IC50 (A549 cells) of 0.54 µM. It also gave an IC50 (HT-1197 cells) of 10 µM.
Molecule `CC(=O)c1cnc2ccc(-c3cc(F)c(O)c(Cl)c3)cc2c1Nc1ccc(NCCN(C)C)nc1` [Example 762, 1-(6-(3-chloro-5-fluoro-4-hydroxyphenyl)-4-(6-(2-(dimethylamino)ethylamino)pyridin-3-ylamino)quinolin-3-yl)ethanone] has an IC50 (T47D cells) of 0.12 µM, an IC50 (DU4475 cells) of 0.089 µM and an IC50 (A549 cells) of 0.25 µM. The IC50 (MELK) was 0.014 µM and the IC50 (HT-1197 cells) was 5.2 µM.
